Data: PubChem BioAssay (NCI)
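These data come from cells grown in 96-well plates and exposed to compound for 48 hours at five concentrations. GI50 is the concentration that inhibits growth by half. TGI marks complete inhibition of growth.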

Tests used:
Experiment in all cases: inhibition of tumour cell growth, NCI panel, 48 h
SNB-75 CNS = test system: SNB-75 CNS
SNB-19 CNS = test system: SNB-19 CNS
ACHN renal = test system: ACHN renal
HCT-15 colon = test system: HCT-15 colon
RPMI-8226 leukemia = test system: RPMI-8226 leukemia
MOLT-4 leukemia = test system: MOLT-4 leukemia
COLO 205 colon = test system: COLO 205 colon
OVCAR-4 ovarian = test system: OVCAR-4 ovarian
HOP-92 NSCLC = test system: HOP-92 NSCLC
IGROV1 ovarian = test system: IGROV1 ovarian

| Structure (SMILES) | GI50 (SNB-75 CNS) | TGI (SNB-75 CNS) | GI50 (SNB-19 CNS) | TGI (SNB-19 CNS) | GI50 (ACHN renal) | TGI (ACHN renal) | GI50 (HCT-15 colon) | TGI (HCT-15 colon) | GI50 (RPMI-8226 leukemia) | TGI (RPMI-8226 leukemia) | GI50 (MOLT-4 leukemia) | TGI (MOLT-4 leukemia) | GI50 (COLO 205 colon) | TGI (COLO 205 colon) | GI50 (OVCAR-4 ovarian) | TGI (OVCAR-4 ovarian) | GI50 (HOP-92 NSCLC) | TGI (HOP-92 NSCLC) | GI50 (IGROV1 ovarian) | TGI (IGROV1 ovarian) |
| --- | --- | --- | --- | --- | --- | --- | --- | --- | --- | --- | --- | --- | --- | --- | --- | --- | --- | --- | --- | --- |
| O=C(Nc1cccc(Cl)c1)Nc1cc(C(F)(F)F)ccc1Cl | 2.29 µM | 6.48 µM | 3.81 µM | 19.6 µM | 2.54 µM | 7.16 µM | 2.66 µM | 11.5 µM | 2.33 µM | 7.13 µM | 3.12 µM | 11.4 µM | 2.09 µM | 3.68 µM | 3.8 µM | 16.6 µM |  |  |  |  |
| Cc1cc(C2CC(O)C(CO)O2)c(Br)cc1Br (stereo unspecified) |  |  | > 100 µM | > 100 µM | > 100 µM | > 100 µM | > 100 µM | > 100 µM | 85.8 µM | > 100 µM |  |  | > 100 µM | > 100 µM |  |  | > 100 µM | > 100 µM | 33.8 µM | > 100 µM |
| CCCCCCCN(CCCCCCC)C(=N)c1ccc(OC)c2ccccc12 | 1.3 µM | 2.6 µM | 1.38 µM | 2.93 µM | 1.32 µM | 2.81 µM |  |  |  |  |  |  | 1.01 µM | 2.35 µM | 1.36 µM | 3.02 µM | 0.603 µM | 2.02 µM | 1.1 µM | 2.7 µM |
| Cc1ccccc1C1SCc2nc3ccccc3n21 (stereo unspecified) |  | > 100 µM |  | > 100 µM |  | > 100 µM |  |  |  | > 100 µM |  |  |  | > 100 µM |  |  |  | 49.5 µM |  | > 100 µM |
| CC(C)(C)c1cc([Si](C)(C)C)c(C#N)c([Si](C)(C)C)c1 |  | > 100 µM |  | > 100 µM |  | > 100 µM |  | > 100 µM |  |  |  | > 100 µM |  | > 100 µM |  | > 100 µM |  | > 100 µM |  | > 100 µM |
| COc1ccc(C2[C@@H](Cl)C(=O)N2c2ccc(OC)cc2)cc1 (stereo partly specified) |  | 64.1 µM |  | > 100 µM |  | > 100 µM |  |  |  | > 100 µM |  | > 100 µM |  | > 100 µM |  |  |  | 39.5 µM |  | > 100 µM |
| CCN(CC(O)COc1ccc2c(c1)[n+]([O-])nc(N)[n+]2[O-])C(C)=O (stereo unspecified) |  | > 100 µM |  | > 100 µM |  | > 100 µM |  | > 100 µM |  | > 100 µM |  | > 100 µM |  | > 100 µM |  | > 100 µM |  |  |  | > 100 µM |
| O=c1[nH]c(C2CCCCC2)nc2ccc(Cl)cc12 |  | > 100 µM |  | > 100 µM |  | > 100 µM |  | > 100 µM |  | > 100 µM |  | > 100 µM |  | > 100 µM |  |  |  | > 100 µM |  | > 100 µM |
| COC1C[C@H](O[C@@H]2C[C@H](O[C@@H]3C[C@H](O[C@@H]4C(=O)c5c(cc6cc(O[C@H]7C[C@@H](O[C@H]8C[C@@H](O)[C@H](O)C(C)O8)[C@H](O)C(C)O7)c(C)c(O)c6c5O)C[C@H]4C(OC)C(=O)[C@@H](O)[C@@H](C)O)OC(C)[C@H]3O)OC(C)[C@@H]2O)OC(C)[C@@H]1O (stereo partly specified) | 0.0622 µM | 0.442 µM | 0.101 µM | > 32.5 µM | 0.252 µM | 31.1 µM | 2.19 µM | > 32.5 µM |  |  | 0.111 µM | > 32.5 µM | 0.0571 µM | 0.147 µM | 0.134 µM | 2.76 µM | 0.0551 µM | 0.25 µM |  |  |
| c1ccc2cc(Cn3c(-c4cccc5ccccc45)[n+](Cc4ccc5ccccc5c4)c4c5ccccc5c5ccccc5c43)ccc2c1 | 0.261 µM | 1.19 µM | 0.318 µM | 1.62 µM |  |  | 0.398 µM | 1.88 µM | 0.101 µM | 0.861 µM | 0.385 µM | 2.09 µM |  |  | 0.324 µM | 1.41 µM |  |  |  |  |
| CC#CC#C/C=C1/C=CC2(CCCCO2)O1 (stereo unspecified) |  | > 100 µM |  | > 100 µM |  |  |  | > 100 µM |  |  |  | > 100 µM |  | > 100 µM |  | > 100 µM |  | > 100 µM |  | > 100 µM |
| O=C(O)[C@@H](Cc1ccccc1)NS(=O)(=O)c1ccc(-c2ccccc2)cc1 | > 100 µM | > 100 µM | > 100 µM | > 100 µM | > 100 µM | > 100 µM | > 100 µM | > 100 µM |  |  | > 100 µM | > 100 µM | > 100 µM | > 100 µM | > 100 µM | > 100 µM | 24.9 µM | > 100 µM | > 100 µM | > 100 µM |
| COC(=O)C1(N2CCOCC2)CCC([C@@H](c2ccccc2)C(C)[N+](=O)[O-])C1 (stereo partly specified) |  | > 100 µM |  | > 100 µM |  | > 100 µM |  | > 100 µM |  | 42.9 µM |  | > 100 µM |  | > 100 µM |  | > 100 µM |  |  |  |  |
| O=S1c2ccccc2N=C(c2cccs2)CC1c1ccccc1O (stereo unspecified) |  | > 100 µM |  | > 100 µM |  | > 100 µM |  | > 100 µM |  | > 100 µM |  | > 100 µM |  | > 100 µM |  | > 100 µM |  |  |  | > 100 µM |
| Oc1ccccc1-c1cnnc(-c2ccccc2O)c1 |  | 51.6 µM |  |  |  | 83.5 µM |  |  |  | 51.2 µM |  | 66.5 µM |  | 41.7 µM |  | > 100 µM |  | 49.9 µM |  |  |
| O=S1(=O)CC#CC[C@@H](CO)[C@@H](CO)CC#CC1 |  | > 100 µM |  |  |  | > 100 µM |  | > 100 µM |  |  |  | > 100 µM |  |  |  | > 100 µM |  | 90.3 µM |  | > 100 µM |
